From patent publication US20050239654A1, “Synergistically acting herbicidal mixtures” (priority 2002, published 2005)

Columns and labels:
Experiment in all cases: Herbicidal action, post-emergence treatment, greenhouse
Format in all cases: in vivo
Galium aparine = test system: Galium aparine
Text: (§1) The mixtures according to the invention were applied pre- or post-emergence (foliar treatment). The herbicidal compounds of component B and, if desired, of component C were applied in the formulation in which they are present as commercially available product.
(§2) The herbicidally active compounds of components A), B) and, if desired, C) were applied in succession or jointly, in the latter case in some cases as a tank mix and in some cases as a ready-mix, in the form of emulsions, aqueous solutions or suspensions, the vehicle being water (300-400 l/ha). In the case of the field trials, application was effected with the aid of a mobile plot sprayer.
(§3) The test period extended over 3 to 8 weeks, and the stands were also observed at later points in time.
(§4) Damage by the herbicidal compositions was evaluated with reference to a scale of 0% to 100 in comparison with untreated control plots. 0 means no damage and 100 means complete destruction of the plants.
(§5) In these examples, the value E at which only an additive effect of the individual active ingredients is to be expected was calculated by the method of S. R. Colby (Calculating synergistic and antagonistic responses of herbicide combinations, Weeds 15, 20 pp (1967)).
(§6) This was done using the formula [formula] where • X=Percentage of the herbicidal action of X at an application rate of x; • Y=Percentage of the herbicidal action of Y at an application rate of Y; • E=expected herbicidal action of X+Y at rates of application x+y (in %); or the formula [formula] where • X=Percentage of the herbicidal action of X at an application rate of x; • Y=Percentage of the herbicidal action of Y at an application rate of y; • Z=Percentage of the herbicidal action of Z at an application rate of z; • E=expected herbicidal action of X+Y+Z at rates of application x+y+z (in %)
(§7) If the value observed exceeds the value E calculated in accordance with Colby's formula, then synergism is present.

Amaranthus retroflexus = test system: Amaranthus retroflexus
Text: as §1, §2, §3, §4, §5, §6, §7

Avena fatua = test system: Avena fatua
Text: as §1, §2, §3, §4, §5, §6, §7

Abutilon theophrasti = test system: Abutilon theophrasti
Text: as §1, §2, §3, §4, §5, §6, §7

Commelina benghalensis = settings: Table 4, 3.91 g/ha ai
Text: as §1, §2, §3, §4, §5, §6, §7

Pharbitis purpurea = settings: Table 12, 62.5 g/ha ai
Text: as §1, §2, §3, §4, §5, §6, §7

Echinochloa crus-galli = test system: Echinochloa crus-galli
Text: as §1, §2, §3, §4, §5, §6, §7

Polygonum persicaria = test system: Polygonum persicaria
Text: as §1, §2, §3, §4, §5, §6, §7

Brachiaria plantaginea = test system: Brachiaria plantaginea
Text: as §1, §2, §3, §4, §5, §6, §7

SMILES: Cc1c(C(=O)c2cnn(C)c2O)ccc(S(C)(=O)=O)c1C1=NOCC1 [Ia.29, 4-[2-methyl-3-(4,5-dihydroisoxazol-3-yl)-4-methylsulfonyl-benzoyl]-1-methyl-5-hydroxy-1H-pyrazole]
- Galium aparine Damage (Galium aparine; Table 7, 0.98 g/ha ai): 20%
- Galium aparine Damage (Galium aparine; Table 8, 1.95 g/ha ai): 30%
- Amaranthus retroflexus Damage (Amaranthus retroflexus; Table 5, 0.98 g/ha ai): 60%
- Amaranthus retroflexus Damage (Amaranthus retroflexus; Table 7, 0.98 g/ha ai): 60%
- Avena fatua Damage (Avena fatua; Table 5, 0.98 g/ha ai): 0%
- Avena fatua Damage (Avena fatua; Table 6, 1.95 g/ha ai): 10%
- Abutilon theophrasti Damage (Abutilon theophrasti; Table 3, 0.98 g/ha ai): 30%
- Abutilon theophrasti Damage (Abutilon theophrasti; Table 9, 7.81 g/ha ai): 85%
- Commelina benghalensis Damage (Commelina benghalensis): 50%

SMILES: CCNc1nc(Cl)nc(NC(C)C)n1 [atrazine]
- Galium aparine Damage (Galium aparine; Table 7, 15.6 g/ha ai): 0%
- Galium aparine Damage (Galium aparine; Table 8, 31.25 g/ha ai): 20%
- Galium aparine Damage (Galium aparine; Table 11, 125 g/ha ai): 60%
- Galium aparine Damage (Galium aparine; Table 15, 125 g/ha ai): 60%
- Pharbitis purpurea Damage (Pharbitis purpurea): 80%
- Echinochloa crus-galli Damage (Echinochloa crus-galli; Table 10, 125 g/ha ai): 30%
- Echinochloa crus-galli Damage (Echinochloa crus-galli; Table 12, 62.5 g/ha ai): 20%
- Echinochloa crus-galli Damage (Echinochloa crus-galli; Table 14, 125 g/ha ai): 30%
- Echinochloa crus-galli Damage (Echinochloa crus-galli; Table 16, 62.5 g/ha ai): 20%
- Amaranthus retroflexus Damage (Amaranthus retroflexus; Table 7, 15.6 g/ha ai): 40%
- Polygonum persicaria Damage (Polygonum persicaria; Table 11, 125 g/ha ai): 60%
- Polygonum persicaria Damage (Polygonum persicaria; Table 13, 62.5 g/ha ai): 40%
- Polygonum persicaria Damage (Polygonum persicaria; Table 17, 62.5 g/ha ai): 40%
- Brachiaria plantaginea Damage (Brachiaria plantaginea; Table 10, 125 g/ha ai): 25%
- Brachiaria plantaginea Damage (Brachiaria plantaginea; Table 16, 62.5 g/ha ai): 20%
- Abutilon theophrasti Damage (Abutilon theophrasti; Table 9, 125 g/ha ai): 30%
- Abutilon theophrasti Damage (Abutilon theophrasti; Table 14, 125 g/ha ai): 30%
